The compounds below were run against T1, bovine eNOS (Bos taurus, UniProt P29473) (assay: NOS inhibition, oxyhemoglobin (hemoglobin capture) test, recombinant eNOS). Conditions: dipeptide-like series; recombinant enzyme, 10 µM arginine, triplicate; NI = <50% inhibition at 100 μM.
T1 construct: Full-length recombinant rat nNOS, mouse iNOS, bovine eNOS; made in house; host or cells: Escherichia coli
Assay type: biochemical

T1 sequence (P29473 whole entry): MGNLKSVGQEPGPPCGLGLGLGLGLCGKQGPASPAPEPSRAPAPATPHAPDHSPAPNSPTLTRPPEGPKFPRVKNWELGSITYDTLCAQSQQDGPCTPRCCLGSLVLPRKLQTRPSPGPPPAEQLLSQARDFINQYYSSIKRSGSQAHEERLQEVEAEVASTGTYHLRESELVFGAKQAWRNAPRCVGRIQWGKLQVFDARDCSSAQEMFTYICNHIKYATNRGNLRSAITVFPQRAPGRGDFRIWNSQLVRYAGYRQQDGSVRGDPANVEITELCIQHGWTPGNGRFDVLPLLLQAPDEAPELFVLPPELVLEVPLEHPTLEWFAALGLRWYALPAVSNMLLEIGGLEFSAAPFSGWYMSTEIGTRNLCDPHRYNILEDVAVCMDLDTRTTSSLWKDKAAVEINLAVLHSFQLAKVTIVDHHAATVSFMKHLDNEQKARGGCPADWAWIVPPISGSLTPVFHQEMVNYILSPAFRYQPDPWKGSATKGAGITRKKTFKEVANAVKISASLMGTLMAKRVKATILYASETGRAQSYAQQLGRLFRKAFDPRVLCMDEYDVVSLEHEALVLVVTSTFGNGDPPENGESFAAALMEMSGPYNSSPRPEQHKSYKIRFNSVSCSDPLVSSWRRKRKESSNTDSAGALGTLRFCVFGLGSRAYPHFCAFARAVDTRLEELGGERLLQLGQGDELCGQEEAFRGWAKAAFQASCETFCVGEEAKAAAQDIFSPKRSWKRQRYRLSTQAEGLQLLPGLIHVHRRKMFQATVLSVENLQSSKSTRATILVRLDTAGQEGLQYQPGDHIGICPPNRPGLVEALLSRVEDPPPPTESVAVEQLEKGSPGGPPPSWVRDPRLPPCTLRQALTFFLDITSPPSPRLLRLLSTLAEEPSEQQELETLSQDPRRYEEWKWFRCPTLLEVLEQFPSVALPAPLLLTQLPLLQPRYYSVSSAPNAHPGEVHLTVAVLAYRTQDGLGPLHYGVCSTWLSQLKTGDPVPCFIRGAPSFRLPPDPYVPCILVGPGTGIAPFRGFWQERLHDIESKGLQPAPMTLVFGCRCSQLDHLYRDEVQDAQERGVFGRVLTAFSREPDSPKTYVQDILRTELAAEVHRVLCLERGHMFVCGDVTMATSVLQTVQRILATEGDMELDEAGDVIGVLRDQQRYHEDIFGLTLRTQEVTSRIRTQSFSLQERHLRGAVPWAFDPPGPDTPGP

**Q.** How did the IC50 turn out when CCSC(=N)NCCC[C@H](N)C(=O)N[C@@H]1CCCN(Cc2cc(O)ccc2O)C1 [Compound 11] was run?
**A.** 25.4 µM

**Q.** For CCSC(=N)NCCC[C@H](N)C(=O)N[C@H]1CCCN(Cc2ccc(-c3cccc([N+](=O)[O-])c3)cc2)C1 [Compound 24], which IC50 is on record?
**A.** 18 µM

Same assay, conditions: dipeptide-like series; recombinant enzyme, 10 µM arginine, triplicate; NI = <50% inhibition at 100 μM; read-out: IC50 (μM) eNOS (Bovine)

**Q.** For CCSC(=N)NCCC[C@H](N)C(=O)N[C@@H]1CCCN(Cc2ccccc2)C1 [Compound 8], which inhibition at 100 µM is on record?
**A.** < 50%

**Q.** Which inhibition at 100 µM does the source give for CCSC(=N)NCCC[C@H](N)C(=O)N[C@H]1CCCN(Cc2ccccc2O)C1 [Compound 9] here?
**A.** < 50%

**Q.** Which inhibition at 100 µM does the source give for CCSC(=N)NCCC[C@H](N)C(=O)N[C@H]1CCCN(Cc2ccccc2[N+](=O)[O-])C1 [Compound 12] here?
**A.** < 50%

**Q.** How did the inhibition at 100 µM turn out when CCSC(=N)NCCC[C@H](N)C(=O)N[C@@H]1CCCN(Cc2ccccc2[N+](=O)[O-])C1 [Compound 13] was run?
**A.** < 50%

**Q.** With CCSC(=N)NCCC[C@H](N)C(=O)N[C@H]1CCCN(Cc2cc(O)ccc2[N+](=O)[O-])C1 [Compound 15] as the compound, how does the inhibition at 100 µM read?
**A.** < 50%

**Q.** Which inhibition at 100 µM does the source give for CCSC(=N)NCCC[C@H](N)C(=O)N[C@H]1CCCN(Cc2cc(OC)c(OC)c(OC)c2)C1 [Compound 16] here?
**A.** < 50%

**Q.** CCSC(=N)NCCC[C@H](N)C(=O)N[C@H]1CCCN(Cc2cccc(C(F)(F)F)c2)C1 [Compound 20] was tested. Which inhibition at 100 µM did it give?
**A.** < 50%

**Q.** For CCSC(=N)NCCC[C@H](N)C(=O)N[C@H]1CCCN(Cc2cccc(-c3ccccc3)c2)C1 [Compound 25], which inhibition at 100 µM is on record?
**A.** < 50%

**Q.** For CCSC(=N)NCCC[C@H](N)C(=O)N[C@H]1CCCN(Cc2cccc(-c3cccc([N+](=O)[O-])c3)c2)C1 [Compound 26], which inhibition at 100 µM is on record?
**A.** < 50%

What follows are compounds tested against T2, mouse iNOS (Mus musculus, UniProt P29477) (assay: NOS inhibition, oxyhemoglobin (hemoglobin capture) test, recombinant iNOS). Conditions: 1,2,4-oxadiazole series; recombinant enzyme, 20 µM arginine, triplicate; NI = <50% inhibition at 100 μM.
T2 construct: Full-length recombinant rat nNOS, mouse iNOS, bovine eNOS; made in house; host or cells: Escherichia coli
T2 sequence (P29477 1-1144): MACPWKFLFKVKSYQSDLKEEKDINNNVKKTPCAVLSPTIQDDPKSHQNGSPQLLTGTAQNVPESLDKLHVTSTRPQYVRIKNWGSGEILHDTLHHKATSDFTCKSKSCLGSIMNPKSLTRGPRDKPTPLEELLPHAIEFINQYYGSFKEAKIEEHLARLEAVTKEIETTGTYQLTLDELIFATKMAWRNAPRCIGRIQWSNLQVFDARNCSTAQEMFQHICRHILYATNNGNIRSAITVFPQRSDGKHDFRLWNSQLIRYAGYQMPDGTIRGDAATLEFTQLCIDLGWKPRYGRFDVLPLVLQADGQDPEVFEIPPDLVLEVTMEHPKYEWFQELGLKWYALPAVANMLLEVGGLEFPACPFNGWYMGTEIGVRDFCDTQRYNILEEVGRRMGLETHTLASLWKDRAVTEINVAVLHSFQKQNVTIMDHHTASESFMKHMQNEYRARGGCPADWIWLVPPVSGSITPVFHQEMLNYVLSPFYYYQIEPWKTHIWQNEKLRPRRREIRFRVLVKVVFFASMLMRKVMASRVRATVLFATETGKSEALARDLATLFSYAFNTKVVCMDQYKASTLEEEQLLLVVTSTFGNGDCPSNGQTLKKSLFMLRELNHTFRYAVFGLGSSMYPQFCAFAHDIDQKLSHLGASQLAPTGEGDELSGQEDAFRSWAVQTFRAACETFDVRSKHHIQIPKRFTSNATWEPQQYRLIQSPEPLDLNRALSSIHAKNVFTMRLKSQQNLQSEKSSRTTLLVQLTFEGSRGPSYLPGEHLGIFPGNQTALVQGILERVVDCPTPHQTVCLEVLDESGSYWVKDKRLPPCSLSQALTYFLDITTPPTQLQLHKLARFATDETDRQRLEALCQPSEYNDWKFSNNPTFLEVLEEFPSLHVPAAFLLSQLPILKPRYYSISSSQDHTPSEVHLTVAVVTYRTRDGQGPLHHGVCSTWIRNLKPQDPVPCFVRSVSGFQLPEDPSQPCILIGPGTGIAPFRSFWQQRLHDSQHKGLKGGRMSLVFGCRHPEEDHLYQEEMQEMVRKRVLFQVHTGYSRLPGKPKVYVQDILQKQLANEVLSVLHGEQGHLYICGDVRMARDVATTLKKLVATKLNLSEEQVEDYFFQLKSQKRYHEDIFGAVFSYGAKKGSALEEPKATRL
Assay type: biochemical
Experimental: (§1) The inhibitory effects of all compounds against the three recombinant NOSs (rat nNOS, mouse iNOS, and bovine eNOS) were evaluated in 96-well plates using the oxyhemoglobin test. A first screening at 100 and 10 μM was performed, and the IC50 values were measured for compounds showing more than 50% inhibition at 100 μM (Table 1 and Table 2).
(§2) Full-length recombinant rat nNOS, mouse iNOS, bovine eNOS, and the heme domains of rat brain nNOS and mouse iNOS were expressed in Escherichia coli and purified as described previously.
(§3) NOS catalytic activity was measured using the hemoglobin capture assay. The test was performed at 30 °C in 96-well microplates using a final volume of 200 µL. The assay mixture contained 100 µM NADPH, 10 µM BH4, 6 µM HbO2, 100 µM DTT, 5 µM FAD, 5 µM FMN, 10 µM (nNOS and eNOS), or 20 µM (iNOS) arginine, all in a 100 mM Hepes buffer, pH 7.5, and, for constitutive n- and e-NOS, 10 µg/mL calmodulin, and 1 mM CaCl2. The studied compounds were introduced as 2 μL of ×100 concentrated solutions in DMSO, and the control experiments were performed with DMSO or the buffer only. The kinetics of NO production were measured at 401 nm using an Infinite F500 microplate reader (Tecan, Singapore).

**Q.** CCSC(=N)NCCC[C@H](N)c1nc(CCNCc2c(C)cccc2C)no1 [Compound 32] was tested. Which IC50 did it give?
**A.** 51.6 µM

**Q.** With CCSC(=N)NCCC[C@H](N)c1nc(CCNCc2cc(O)ccc2[N+](=O)[O-])no1 [Compound 41] as the compound, how does the IC50 read?
**A.** 36.3 µM

Same assay, conditions: dipeptide-like series; recombinant enzyme, 20 µM arginine, triplicate; NI = <50% inhibition at 100 μM

**Q.** How did the IC50 turn out when CCSC(=N)NCCC[C@H](N)C(=O)N[C@@H]1CCCN(Cc2ccccc2)C1 [Compound 8] was run?
**A.** 25.6 µM

**Q.** With CCSC(=N)NCCC[C@H](N)C(=O)N[C@H]1CCCN(Cc2ccccc2O)C1 [Compound 9] as the compound, how does the IC50 read?
**A.** 51 µM

**Q.** With CCSC(=N)NCCC[C@H](N)C(=O)N[C@@H]1CCCN(Cc2cc(O)ccc2O)C1 [Compound 11] as the compound, how does the IC50 read?
**A.** 73.4 µM

**Q.** With CCSC(=N)NCCC[C@H](N)C(=O)N[C@H]1CCCN(Cc2ccccc2[N+](=O)[O-])C1 [Compound 12] as the compound, how does the IC50 read?
**A.** 46 µM

**Q.** CCSC(=N)NCCC[C@H](N)C(=O)N[C@@H]1CCCN(Cc2ccccc2[N+](=O)[O-])C1 [Compound 13] was tested. Which IC50 did it give?
**A.** 78.9 µM

**Q.** For CCSC(=N)NCCC[C@H](N)C(=O)N[C@H]1CCCN(Cc2cc(O)ccc2[N+](=O)[O-])C1 [Compound 15], which IC50 is on record?
**A.** 31.3 µM

**Q.** For CCSC(=N)NCCC[C@H](N)C(=O)N[C@H]1CCCN(Cc2cc(OC)c(OC)c(OC)c2)C1 [Compound 16], which IC50 is on record?
**A.** 54.9 µM

**Q.** For CCSC(=N)NCCC[C@H](N)C(=O)N[C@H]1CCCN(Cc2ccc(-c3cccc([N+](=O)[O-])c3)cc2)C1 [Compound 24], which IC50 is on record?
**A.** 21.6 µM

**Q.** How did the IC50 turn out when CCSC(=N)NCCC[C@H](N)C(=O)N[C@H]1CCCN(Cc2cccc(-c3ccccc3)c2)C1 [Compound 25] was run?
**A.** 36.5 µM

**Q.** Which IC50 does the source give for CCSC(=N)NCCC[C@H](N)C(=O)N[C@H]1CCCN(Cc2cccc(-c3cccc([N+](=O)[O-])c3)c2)C1 [Compound 26] here?
**A.** 48.3 µM

Same assay, conditions: dipeptide-like series; recombinant enzyme, 20 µM arginine, triplicate; NI = <50% inhibition at 100 μM; read-out: IC50 (μM) iNOS (Mouse)

**Q.** CCSC(=N)NCCC[C@H](N)C(=O)N[C@H]1CCCN(Cc2cccc(C(F)(F)F)c2)C1 [Compound 20] was tested. Which inhibition at 100 µM did it give?
**A.** < 50%

What follows are compounds tested on RAW 264.7 cells (assay: Cell viability, MTT assay). Conditions: RAW 264.7, LPS 1 µg/mL.
Assay type: cell-based, murine
Experimental: Cell viability was evaluated in the murine macrophage RAW 264.7 cells using an MTT assay for compounds 18, 21, 26, and 30. This experiment was performed without or with LPS (1 µg/mL), which induces iNOS expression (Figure S1). […] Compound 30 only killed 20% of the cells at 500 μM (Figure S1A). In the presence of LPS (1 µg/mL), cell viability was reduced by 30% due to the inhibition by NO of key enzymes involved in cell metabolism (Figure S1B).
The macrophage cell line RAW 264.7 (a gift from Dr. A. Blangy, Montpellier, France) was cultured in Dulbecco’s Modified Eagle’s Medium (DMEM) supplemented with 10% FCS, 100 units/mL penicillin, 100 µg/mL streptomycin, and 2 mM L-glutamine.
Cellular NO production was measured using the Griess reagent (Sigma-Aldrich), which evaluates the nitrite content in culture media. Cellular toxicity was estimated by the MTT assay (Sigma-Aldrich) in RAW 264.7 cells after the induction (or not) of iNOS by LPS, according to the manufacturer’s recommendations.

**Q.** CCSC(=N)NCCC[C@H](N)C(=O)N[C@H]1CCCN(Cc2cccc(-c3cccc([N+](=O)[O-])c3)c2)C1 [Compound 26] was tested. Which “Reversal of LPS-induced reduction of cell viability” value did it give?
**A.** none partially reversed the LPS effect

Same assay, conditions: RAW 264.7, absence of LPS, up to 100 μM

**Q.** CCSC(=N)NCCC[C@H](N)C(=O)N[C@H]1CCCN(Cc2cccc(-c3cccc([N+](=O)[O-])c3)c2)C1 [Compound 26] was tested. Which “Effect on cell viability (MTT)” value did it give?
**A.** fully toxic

The compounds below were run against T3, rat nNOS (Rattus norvegicus, UniProt P29476) (assay: NOS inhibition, oxyhemoglobin (hemoglobin capture) test, recombinant nNOS). Conditions: 1,2,4-oxadiazole series; recombinant enzyme, 10 µM arginine, triplicate; NI = <50% inhibition at 100 μM.
T3 construct: Full-length recombinant rat nNOS, mouse iNOS, bovine eNOS; made in house; host or cells: Escherichia coli
Assay type: biochemical
Experimental: as §1, §2, §3

T3 sequence (P29476 whole entry): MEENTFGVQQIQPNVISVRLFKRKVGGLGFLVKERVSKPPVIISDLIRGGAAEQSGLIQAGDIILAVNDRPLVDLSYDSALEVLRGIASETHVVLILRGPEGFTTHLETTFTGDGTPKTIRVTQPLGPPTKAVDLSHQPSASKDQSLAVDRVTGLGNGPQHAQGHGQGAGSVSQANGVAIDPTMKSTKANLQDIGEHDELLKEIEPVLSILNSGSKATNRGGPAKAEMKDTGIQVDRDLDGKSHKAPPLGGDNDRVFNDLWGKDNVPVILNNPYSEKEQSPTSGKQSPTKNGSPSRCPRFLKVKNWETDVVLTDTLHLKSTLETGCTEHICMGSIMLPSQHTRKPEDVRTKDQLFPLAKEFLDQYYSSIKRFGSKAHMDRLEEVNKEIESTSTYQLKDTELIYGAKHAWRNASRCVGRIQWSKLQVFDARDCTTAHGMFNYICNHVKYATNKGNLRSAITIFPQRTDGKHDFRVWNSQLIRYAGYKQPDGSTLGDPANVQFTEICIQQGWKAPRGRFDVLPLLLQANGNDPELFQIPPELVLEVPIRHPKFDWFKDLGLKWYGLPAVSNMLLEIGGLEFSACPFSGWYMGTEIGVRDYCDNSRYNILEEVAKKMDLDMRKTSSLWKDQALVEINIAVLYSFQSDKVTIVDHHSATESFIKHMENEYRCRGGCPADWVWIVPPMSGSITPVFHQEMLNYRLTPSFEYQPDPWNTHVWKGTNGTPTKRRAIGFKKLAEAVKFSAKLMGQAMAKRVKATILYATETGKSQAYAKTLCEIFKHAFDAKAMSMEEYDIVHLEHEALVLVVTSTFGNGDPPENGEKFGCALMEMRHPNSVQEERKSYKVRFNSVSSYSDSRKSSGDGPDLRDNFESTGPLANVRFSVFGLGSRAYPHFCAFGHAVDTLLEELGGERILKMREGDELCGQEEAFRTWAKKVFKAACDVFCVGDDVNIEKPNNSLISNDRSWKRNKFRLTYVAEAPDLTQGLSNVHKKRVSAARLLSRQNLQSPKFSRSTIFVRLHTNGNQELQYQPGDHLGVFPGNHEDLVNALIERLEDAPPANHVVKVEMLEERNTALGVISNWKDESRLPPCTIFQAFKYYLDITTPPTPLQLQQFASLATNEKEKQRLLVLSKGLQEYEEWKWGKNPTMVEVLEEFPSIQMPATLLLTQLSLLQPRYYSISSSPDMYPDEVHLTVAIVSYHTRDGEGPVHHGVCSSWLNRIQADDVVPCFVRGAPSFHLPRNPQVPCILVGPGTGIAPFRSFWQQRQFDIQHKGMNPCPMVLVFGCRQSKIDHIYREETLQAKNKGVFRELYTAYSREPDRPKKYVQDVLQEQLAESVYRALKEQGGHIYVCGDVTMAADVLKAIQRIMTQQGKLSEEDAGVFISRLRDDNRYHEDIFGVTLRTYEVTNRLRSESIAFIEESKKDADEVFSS

**Q.** For CCSC(=N)NCCC[C@H](N)c1nc(CCNCc2c(C)cccc2C)no1 [Compound 32], which IC50 is on record?
**A.** 60.1 µM

**Q.** With CCSC(=N)NCCC[C@H](N)c1nc(CCNCc2cc(O)ccc2[N+](=O)[O-])no1 [Compound 41] as the compound, how does the IC50 read?
**A.** 3 µM

Same assay, conditions: dipeptide-like series; recombinant enzyme, 10 µM arginine, triplicate; NI = <50% inhibition at 100 μM

**Q.** For CCSC(=N)NCCC[C@H](N)C(=O)N[C@@H]1CCCN(Cc2ccccc2)C1 [Compound 8], which IC50 is on record?
**A.** 15.6 µM

**Q.** Which IC50 does the source give for CCSC(=N)NCCC[C@H](N)C(=O)N[C@H]1CCCN(Cc2ccccc2O)C1 [Compound 9] here?
**A.** 51.1 µM

**Q.** How did the IC50 turn out when CCSC(=N)NCCC[C@H](N)C(=O)N[C@@H]1CCCN(Cc2ccccc2[N+](=O)[O-])C1 [Compound 13] was run?
**A.** 30.6 µM

**Q.** CCSC(=N)NCCC[C@H](N)C(=O)N[C@H]1CCCN(Cc2cc(O)ccc2[N+](=O)[O-])C1 [Compound 15] was tested. Which IC50 did it give?
**A.** 25.2 µM

**Q.** For CCSC(=N)NCCC[C@H](N)C(=O)N[C@H]1CCCN(Cc2cc(OC)c(OC)c(OC)c2)C1 [Compound 16], which IC50 is on record?
**A.** 49.6 µM

**Q.** How did the IC50 turn out when CCSC(=N)NCCC[C@H](N)C(=O)N[C@H]1CCCN(Cc2cccc(C(F)(F)F)c2)C1 [Compound 20] was run?
**A.** 15.4 µM

**Q.** How did the IC50 turn out when CCSC(=N)NCCC[C@H](N)C(=O)N[C@H]1CCCN(Cc2ccc(-c3cccc([N+](=O)[O-])c3)cc2)C1 [Compound 24] was run?
**A.** 3.5 µM

**Q.** Which IC50 does the source give for CCSC(=N)NCCC[C@H](N)C(=O)N[C@H]1CCCN(Cc2cccc(-c3ccccc3)c2)C1 [Compound 25] here?
**A.** 2.8 µM

**Q.** How did the IC50 turn out when CCSC(=N)NCCC[C@H](N)C(=O)N[C@H]1CCCN(Cc2cccc(-c3cccc([N+](=O)[O-])c3)c2)C1 [Compound 26] was run?
**A.** 1.3 µM

Same assay, conditions: dipeptide-like series; recombinant enzyme, 10 µM arginine, triplicate; NI = <50% inhibition at 100 μM; read-out: IC50 (μM) nNOS (Rat)

**Q.** Which inhibition at 100 µM does the source give for CCSC(=N)NCCC[C@H](N)C(=O)N[C@H]1CCCN(Cc2ccccc2[N+](=O)[O-])C1 [Compound 12] here?
**A.** < 50%
